Source: patent US10988465B2, “CXCR4 inhibitors and uses thereof” (X4 Pharmaceuticals, Inc., priority 2016, dated 2021)

What was measured:
[1] = Mouse brain uptake assay (MBUA), 3 mg/kg IV, 0-1 h, 3 time points; format: in vivo, male CD1 mice; settings: for Kp / clearance / half-life / AUC(0-t) / Kp uu: male; for Kp: CD1, mouse, brain/plasma, iv, 3 mg/kg; for clearance / half-life: CD1, plasma, 3 time points; for clearance / half-life / AUC(0-t) / Kp uu / fraction unbound: mouse; for clearance / half-life / AUC(0-t) / Kp uu: 3 mg/kg IV, 0-1 h; for half-life: read-out: t½ (converted); for AUC(0-t) / Kp uu: CD1; for Kp uu: unbound brain/unbound plasma
Method: (§1) Example 38: Pharmacokinetics and Brain Penetration Experiment to Determine Brain and Plasma Concentrations of Compounds after IV Administration to Male CD1 Mice
(§2) The study design (9 animals) consisted of administrating the drug (IV: 3 mg/kg (5 mL/kg) via tail vein injection) and collecting samples at terminal bleeding for plasma and brain at 0.083, 0.5 and 1 h. The IV dosing solution was prepared in 50 mM citrate buffer (pH 4.0) at 0.6 mg/mL. The blood collection was performed as follows: the animal was restrained manually and approximately 150 μL blood/time point was collected into a dipotassium EDTA tube via retro orbital puncture under anesthesia with isoflurane. The blood sample was put on ice and centrifuged to obtain a plasma sample (2000 g, 5 min under 4° C.) within 15 minutes. The brain collection was performed as follows: a mid-line incision was made in the animal's scalp and the skin was retracted. Using small bone cutters and rongeurs, the skull overlying the brain was removed. The brain was removed using a spatula and the brain rinsed with cold saline. The brain was placed in screw-top tubes, and the tubes were stored at −70° C. until analysis.
(§3) An aliquot of 30 μL sample was added to 150 μL MeCN containing 50 ng/mL IS (Dexamethasone). The mixture was vortexed for 5 min and centrifuged at 14,000 rpm for 5 min. An aliquot of 5 μL supernatant was injected for LC-MS/MS analysis.
(§4) An aliquot of 30 μL brain homogenate (brain:PBS=1:3, w/v) sample was added to 150 μL IS in MeCN (Dexamethasone, 50 ng/mL). The mixture was vortexed for 5 min and centrifuged at 14,000 rpm for 5 min. An aliquot of 5 μL supernatant was injected for LC-MS/MS analysis.
(§5) The sample analysis was performed on LCMS/MS-003 (API4000, triple quadruple) under the following conditions: positive ion, ESI, MRM detection using dexamethasone as internal standard. HPLC conditions: mobile phase A: H2O (0.025% formic acid (FA) with 1 mM NH4OAc); mobile phase B: MeOH (0.025% FA with 1 mM NH4OAc) on Waters X-Bridge C18 (2.1×50 mm, 2.5 μm) column at 60° C.

[2] = target: T1, Jurkat cells expressing CXCR4 (Homo sapiens, UniProt P61073); assay: Chemokine (CXCL12-AF647) binding inhibition assay; settings: CXCL12-AF647 25 ng/mL, read-out: IC50 CXCL-12 binding Jurkat
T1 construct: endogenous in cells; host or cells: Jurkat
T1 sequence (P61073 whole entry): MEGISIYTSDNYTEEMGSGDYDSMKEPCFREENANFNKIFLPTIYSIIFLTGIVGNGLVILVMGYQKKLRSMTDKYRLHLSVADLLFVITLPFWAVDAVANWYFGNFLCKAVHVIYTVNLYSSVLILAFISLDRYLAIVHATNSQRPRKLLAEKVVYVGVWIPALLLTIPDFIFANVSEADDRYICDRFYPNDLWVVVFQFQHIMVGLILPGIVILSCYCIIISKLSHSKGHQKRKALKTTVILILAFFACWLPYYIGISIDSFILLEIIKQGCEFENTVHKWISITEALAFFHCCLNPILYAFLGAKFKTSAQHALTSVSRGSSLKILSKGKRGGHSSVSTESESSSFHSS
How it was run: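 Cells in HBSS, 20 mM HEPES, 0.2% BSA, pH 7.4, preincubated 15 min at room temperature with compound, then 25 ng/mL CXCL12-AF647 for 30 min. After washing and paraformaldehyde fixation, bound ligand read by flow cytometry; percent inhibition calculated from MFI relative to unlabeled and ligand-only controls.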

[3] = in vitro; settings: human, Caco-2, pH 7.4
How it was run: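 Caco-2 monolayers, checked by TEER with Lucifer yellow as marker, were dosed with 10 μM compound in HBSS pH 7.4 in A-to-B and B-to-A directions. Incubation was 90 min at 37° C, in duplicate. Samples were quantified by LC-MS/MS and Papp calculated.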

[4] = target: T2, CXCR-4 transfected U87 cell line (U87.CXCR4) (Homo sapiens, UniProt P61073); assay: Intracellular CXCL-12-induced calcium mobilization assay (FLIPR); format: cell-based; settings: U87.CXCR4 cells; CXCL-12 25-50 ng/mL; compound added 15 min before; read-out: IC50 CXCL-12 Ca^2+ flux U87.CXCR4+
T2 construct: expressed in transfected cells; host or cells: U87 (U87.CXCR4)
T2 sequence (P61073 whole entry): as above
How it was run: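 U87 cells stably expressing human CXCR4, loaded with Fluo-2 AM (4 μM final) for 45 min at 37 °C in HBSS/20 mM HEPES/0.2% BSA, pH 7.4. Calcium flux triggered by CXCL-12 (25-50 ng/mL) was followed by FLIPR fluorescence over time at 37 °C.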

[5] = Mouse brain uptake assay (MBUA), 3 mg/kg IV, 0-24 h, 4 time points; format: in vivo, male CD1 mice; settings: for Kp: CD1, mouse, brain/plasma, iv, 3 mg/kg; for clearance / half-life: CD1, plasma, 4 time points; for half-life: read-out: t½ (converted)
Method: as §1, §2, §3, §4, §5
A similar experiment was performed with 4 time points taken from 0-24 h.

[6] = fraction unbound to brain proteins, read-out: Fu (b) %
[7] = fraction unbound to plasma proteins, read-out: Fu (p) %
[8] = male, mouse, 3 mg/kg IV, 0-24 h
[9] = male, CD1, brain, mouse, 3 mg/kg IV, 0-24 h, read-out: AUClast (b)
[10] = male, CD1, plasma, mouse, 3 mg/kg IV, 0-24 h, read-out: AUClast (P)

Kp [1]	clearance [1]	half-life [1]	AUC(0-t) ([1]; brain, read-out: AUClast (b))	AUC(0-t) ([1]; plasma, read-out: AUClast (P))	Kp uu ([1]; read-out: Kp, uu)	fraction unbound [1, 6]	fraction unbound [1, 7]	IC50 [2]	Papp A→B at 90 min, 10 μM [3]	Papp B→A at 90 min, 10 μM [3]	efflux ratio at 90 min, 10 μM [3]	IC50 [4]	Kp ([5]; male)	clearance [5, 8]	half-life [5, 8]	AUC(0-t) [5, 9]	AUC(0-t) [5, 10]	further results	SMILES
0.34	282 mL/min/kg	17.8 min	55.3 ng·h/mL	161 ng·h/mL	0.02	0.004	0.076	0.01 to 100 nM	0.1 to 10 ×10⁻⁶ cm/s	10 to 30 ×10⁻⁶ cm/s	0.1 to 10	0.01 to 100 nM	–	–	–	–	–	–	Cc1cccnc1[C@@H]1CCC[C@H](c2nc3ccccc3n2CC2CCN(C)CC2)N1C [I-15, 2-((2R,6S)-1-methyl-6-(3-methylpyridin-2-yl)piperidin-2-yl)-1-((1-methylpiperidin-4-yl)methyl)-1H-benzo[d]imidazole]
0.35	101 mL/min/kg	38.2 min	112 ng·h/mL	316 ng·h/mL	0.04	0.018	0.163	0.01 to 100 nM	0.1 to 10 ×10⁻⁶ cm/s	10 to 30 ×10⁻⁶ cm/s	0.1 to 10	0.01 to 100 nM	–	–	–	–	–	–	Cc1cccnc1[C@@H]1CCC[C@H](c2nc3cccc(N4CCN(C)CC4)c3[nH]2)N1 [I-83]
1.66	19.7 mL/min/kg	185 min	539 ng·h/mL	323 ng·h/mL	0.54	0.01	0.031	0.01 to 100 nM	10 to 30 ×10⁻⁶ cm/s	10 to 30 ×10⁻⁶ cm/s	0.1 to 10	0.01 to 100 nM	–	–	–	–	–	–	Cc1cccnc1[C@@H]1CCC[C@H](c2nc3cccc(N4CCN(C)C5(CC5)C4)c3[nH]2)N1 [I-132]
0.31	132 mL/min/kg	23.2 min	99.7 ng·h/mL	313 ng·h/mL	0.07	0.048	0.215	0.01 to 100 nM	0.1 to 10 ×10⁻⁶ cm/s	10 to 30 ×10⁻⁶ cm/s	0.1 to 10	0.01 to 100 nM	–	–	–	–	–	–	COc1cccnc1[C@@H]1CCC[C@H](c2nc3cccc(N4CCN(C)CC4)c3[nH]2)N1 [I-127]
2.51	77.2 mL/min/kg	16 min	1510 ng·h/mL	601 ng·h/mL	0.73	0.016	0.055	0.01 to 100 nM	10 to 30 ×10⁻⁶ cm/s	10 to 30 ×10⁻⁶ cm/s	0.1 to 10	100 to 1000 nM	–	–	–	–	–	–	CN1CCN(c2cccc3nc([C@H]4CCC[C@@H](c5ncccc5Cl)N4C)[nH]c23)CC1 [I-9, 2-((2R,6S)-6-(3-chloropyridin-2-yl)-1-methylpiperidin-2-yl)-7-(4-methylpiperazin-1-yl)-1H-benzo[d]imidazole]
0.41	375 mL/min/kg	18.1 min	49.7 ng·h/mL	120 ng·h/mL	–	0.002	0.189	0.01 to 100 nM	0.1 to 10 ×10⁻⁶ cm/s	0.1 to 10 ×10⁻⁶ cm/s	0.1 to 10	0.01 to 100 nM	–	–	–	–	–	Kp uu [1]: 0	Cc1cccnc1[C@@H]1CCC[C@H](c2nc3ccccc3n2CC2CCN(C(C)C)CC2)N1C [I-23, 1-((1-isopropylpiperidin-4-yl)methyl)-2-((2R,6S)-1-methyl-6-(3-methylpyridin-2-yl)piperidin-2-yl)-1H-benzo[d]imidazole]
–	–	–	–	–	–	–	–	0.01 to 100 nM	10 to 30 ×10⁻⁶ cm/s	10 to 30 ×10⁻⁶ cm/s	0.1 to 10	100 to 1000 nM	7.3	102 mL/min/kg	16.7 min	3280 ng·h/mL	449 ng·h/mL	–	CO[C@H]1C[C@H](c2nc3cccc(N4CCN(C)CC4)c3[nH]2)N(C)[C@H](c2ncccc2C)C1 [I-103]
–	–	–	–	–	–	–	–	0.01 to 100 nM	> 30 ×10⁻⁶ cm/s	10 to 30 ×10⁻⁶ cm/s	0.1 to 10	0.01 to 100 nM	57.2	46.5 mL/min/kg	11.6 min	59800 ng·h/mL	1050 ng·h/mL	–	Cc1cccnc1[C@@H]1CCC[C@H](c2nc3cccc(N4CCN(C5CC5)CC4)c3[nH]2)N1C [I-76]
–	–	–	–	–	–	–	–	0.01 to 100 nM	10 to 30 ×10⁻⁶ cm/s	10 to 30 ×10⁻⁶ cm/s	0.1 to 10	0.01 to 100 nM	15	168 mL/min/kg	16.9 min	4080 ng·h/mL	272 ng·h/mL	Kp uu ([5]; male, CD1, unbound brain/unbound plasma, mouse, 3 mg/kg IV, 0-24 h): 1.98; fraction unbound ([5]; mouse, fraction unbound to brain proteins, read-out: Fu (b) %): 0.016; fraction unbound ([5]; mouse, fraction unbound to plasma proteins, read-out: Fu (p) %): 0.121	Cc1cc(F)cnc1[C@@H]1CCC[C@H](c2nc3cccc(N4CCN(C)CC4)c3[nH]2)N1C [I-69]
